Measurements: patent US20250221996A1, “HETEROCYCLIC COMPOUNDS, COMPOSITIONS THEREOF, AND METHODS OF TREATMENT THEREWITH” (BeiGene, Ltd., priority 2022, published 2025)

What follows are compounds tested on pERK1/2(THR202/TYR204) level in AsPC-1 cells (assay: pERK assay (HTRF) in AsPC-1 cell line). Settings: 2 h compound treatment.
Format: cell-based
Experimental: AsPC-1 cell line was used in this study. Cells were maintained in RPMI-1640 supplemented with 10% fetal bovine serum (Thermo Fisher), 50 units/mL penicillin and streptomycin (Thermo Fisher) and kept at 37° C. in a humidified atmosphere of 5% CO2 in air. Cells were reinstated from frozen stocks that were laid down within 30 passages from the original cells purchased. 30000 cells per well were seeded into a 96-well plate and incubated overnight. Cells were treated with a 10-point dilution series. The final compound concentration is from 0 to 10 μM. After 2 h compound treatment, cells were lysed, and the pERK1/2(THR202/TYR204) level in the cell lysates was detected by HTRF kit (Cisbio). In brief, a total of 16 μL of cell lysate from each well of a 96-well plate was transferred to a 384-well white assay plate. Lysate from each well was incubated with 2 μL of Eu3+-cryptate (donor) labeled anti-phospho-ERK1/2 and 2 μL of D2 (acceptor) labeled anti-phospho-ERK1/2 antibodies (Cisbio) overnight in dark at room temperature. When donor and acceptor are in close proximity, excitation of the donor with laser triggers a Fluorescence Resonance Energy Transfer (FRET) towards the acceptor, which in turn fluoresces at 655 nm wavelength. FRET signals were measured using a PHERAstar FSX reader (BMG Labtech). IC50 determination was performed by fitting the curve of percent inhibition versus the log of the inhibitor concentration using Dotmatics.

| SMILES | IC50 |
| --- | --- |
| N#Cc1c(N)sc2c(F)ccc(-c3c(C(F)(F)F)cc4c(N5CC6CCC(C5)N6)nc(OCC5(C#N)CCOCC5)nc4c3F)c12 (single isomer, unassigned) [Example 22-Isomer 2, 4-(((7-(2-amino-3-cyano-7-fluorobenzo[b]thiophen-4-yl)-4-(3,8-diazabicyclo[3.2.1]octan-3-yl)-8-fluoro-6-(trifluoromethyl)quinazolin-2-yl)oxy)methyl)tetrahydro-2H-pyran-4-carbonitrile] | 72 nM |

Same assay, conditions: Homo sapiens, ASPC1, 2 h, 2 h compound treatment

| SMILES | IC50 |
| --- | --- |
| N#Cc1c(N)sc2c(F)ccc(-c3c(C(F)(F)F)cc4c(N5CC6CCC(C5)N6)nc(OCC5(C(F)F)COC5)nc4c3F)c12 (single isomer, unassigned) [Example 48-Isomer 2, 4-(4-(3,8-diazabicyclo[3.2.1]octan-3-yl)-2-((3-(difluoromethyl)oxetan-3-yl)methoxy)-8-fluoro-6-(trifluoromethyl)quinazolin-7-yl)-2-amino-7-fluoro benzo[b]thiophene-3-carbonitrile] | 65 nM |
| COC1(COc2nc(N3CC4CCC(C3)N4)c3cc(C(F)(F)F)c(-c4ccc(F)c5sc(N)c(C#N)c45)c(F)c3n2)CCOC1 (stereo not drawn) [Example 3-Mixture 1, 4-(4-(3,8-diazabicyclo[3.2.1]octan-3-yl)-8-fluoro-2-((3-methoxytetra hydrofuran-3-yl)methoxy)-6-(trifluoromethyl)quinazolin-7-yl)-2-amino-7-fluoro benzo[b]thiophene-3-carbonitrile] | 1730 nM |
| N#Cc1c(N)sc2c(F)ccc(-c3c(C(F)(F)F)cc4c(N5CC6CCC(C5)N6)nc(OCC5(O)CCOC5)nc4c3F)c12 (stereo not drawn) [Example 6, 4-(4-(3,8-diazabicyclo[3.2.1]octan-3-yl)-8-fluoro-2-((3-hydroxytetrahydrofuran-3-yl)methoxy)-6-(trifluoromethyl)quinazolin-7-yl)-2-amino-7-fluoro benzo[b]thiophene-3-carbonitrile] | 187 nM |
| N#Cc1c(N)sc2c(F)ccc(-c3c(C(F)(F)F)cc4c(N5CC6CCC(C5)N6)nc(OCC56CCC(C5)OC6)nc4c3F)c12 (stereo not drawn) [Example 7, 4-(2-((2-oxabicyclo[2.2.1]heptan-4-yl)methoxy)-4-(3,8-diazabicyclo[3.2.1]octan-3-yl)-8-fluoro-6-(trifluoromethyl)quinazolin-7-yl)-2-amino-7-fluorobenzo[b]thiophene-3-carbonitrile] | 112 nM |
| COC(=O)N1CC(C)(COc2nc(N3CC4CCC(C3)N4)c3cc(C(F)(F)F)c(-c4ccc(F)c5sc(N)c(C#N)c45)c(F)c3n2)C1 [Example 8, methyl 3-(((7-(2-amino-3-cyano-7-fluorobenzo[h]thiophen-4-yl)-4-(3,8-diazabicyclo[3.2.1]octan-3-yl)-8-fluoro-6-(trifluoromethyl)quinazolin-2-yl)oxy)methyl)-3-methylazetidine-1-carboxylate] | 159 nM |
| CCC12CC(COc3nc(N4CC5CCC(C4)N5)c4cc(C(F)(F)F)c(-c5ccc(F)c6sc(N)c(C#N)c56)c(F)c4n3)(CO1)C2 [Example 12, 4-(4-(3,8-diazabicyclo[3.2.1]octan-3-yl)-2-((1-ethyl-2-oxabicyclo [2.1.1]hexan-4-yl)methoxy)-8-fluoro-6-(trifluoromethyl)quinazolin-7-yl)-2-amino-7-fluorobenzo[h]thiophene-3-carbonitrile] | 1730 nM |
| CC(=O)N1CC(C)(COc2nc(N3CC4CCC(C3)N4)c3cc(C(F)(F)F)c(-c4ccc(F)c5sc(N)c(C#N)c45)c(F)c3n2)C1 [Example 13, 4-(2-((1-acetyl-3-methylazetidin-3-yl)methoxy)-4-(3,8-diazabicyclo[3.2.1]octan-3-yl)-8-fluoro-6-(trifluoromethyl)quinazolin-7-yl)-2-amino-7-fluorobenzo[b]thiophene-3-carbonitrile] | 146 nM |
| CC12CC(COc3nc(N4CC5CCC(C4)N5)c4ccc(-c5ccc(F)c6sc(N)c(C#N)c56)c(F)c4n3)(CO1)C2 [Example 15, 4-(4-(3,8-diazabicyclo[3.2.1]octan-3-yl)-8-fluoro-2-((1-methyl-2-oxabicyclo[2.1.1]hexan-4-yl)methoxy)quinazolin-7-yl)-2-amino-7-fluorobenzo[b] thiophene-3-carbonitrile] | 7140 nM |
